The values that follow come from patent US12084437B2, “Halo-substituted piperidines as orexin receptor modulators” (AstraZeneca AB, priority 2016, dated 2024).

A value given as a limit tells only on which side of the number the result lay.

The IC50 is the concentration at which inhibition is half-maximal.

The target in one test is T1, OX2 (Homo sapiens, UniProt O43614).
T1 construct: expressed in transfected cells; host or cells: CHO (CHO-OX2)
T1 sequence (O43614 1-444): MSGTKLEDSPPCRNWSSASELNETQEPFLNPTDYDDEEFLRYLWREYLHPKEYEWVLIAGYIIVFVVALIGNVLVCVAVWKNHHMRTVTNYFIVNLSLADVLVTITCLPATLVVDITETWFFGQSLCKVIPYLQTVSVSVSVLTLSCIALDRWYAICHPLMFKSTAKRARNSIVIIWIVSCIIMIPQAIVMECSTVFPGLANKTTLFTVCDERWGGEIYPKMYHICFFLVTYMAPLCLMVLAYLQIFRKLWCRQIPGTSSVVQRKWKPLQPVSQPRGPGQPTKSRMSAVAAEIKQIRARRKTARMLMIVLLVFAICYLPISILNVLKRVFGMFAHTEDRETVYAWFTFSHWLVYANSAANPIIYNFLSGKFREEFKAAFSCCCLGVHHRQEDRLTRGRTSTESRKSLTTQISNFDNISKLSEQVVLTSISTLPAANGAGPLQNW
In words: Orexin receptor cell-based functional assay, [Ca2+]i by FLIPR, CHO-OX2 cells. The following applies: FLIPR calcium, antagonism of EC90 of [OX]. An outline of the steps: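 CHO cells expressing human OX1 or OX2 (20,000/well, grown overnight) were loaded with Calcium6 dye plus 2.5 mM probenecid for 2 h at 37 °C, then preincubated 30 min with compound (0.1 nM–10 µM). FLIPR fluorescence (ex 488/em 540 nm) was tracked before and after an EC90 orexin challenge.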

The target of another test is T2, OX1 (Homo sapiens, UniProt O43613).
T2 construct: expressed in transfected cells; host or cells: CHO (CHO-OX1)
T2 sequence (O43613 1-425): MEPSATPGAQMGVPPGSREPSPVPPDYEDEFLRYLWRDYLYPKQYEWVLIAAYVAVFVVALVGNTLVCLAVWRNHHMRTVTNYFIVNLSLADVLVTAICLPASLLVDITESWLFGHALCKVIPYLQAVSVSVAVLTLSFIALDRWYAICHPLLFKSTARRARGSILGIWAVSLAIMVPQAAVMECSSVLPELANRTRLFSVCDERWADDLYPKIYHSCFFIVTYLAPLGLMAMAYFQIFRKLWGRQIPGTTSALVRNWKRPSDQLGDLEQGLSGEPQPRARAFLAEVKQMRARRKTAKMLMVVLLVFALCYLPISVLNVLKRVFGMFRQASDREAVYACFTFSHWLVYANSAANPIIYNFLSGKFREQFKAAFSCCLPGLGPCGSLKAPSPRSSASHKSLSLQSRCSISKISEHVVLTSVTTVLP
Description: Orexin receptor cell-based functional assay, [Ca2+]i by FLIPR, CHO-OX1 cells. The settings on record: FLIPR calcium, antagonism of EC90 of [OX], read-out: OXI, IC50.

Regarding `C[C@@H]1CC(F)(F)CN(C(=O)c2nn(C)cc2-c2ncc(Cl)cn2)[C@@H]1CNc1ncc(C(F)(F)F)cn1` [Compound 218, (4-(5-chloropyrimidin-2-yl)-1-methyl-1H-pyrazol-3-yl)((2S,3R)-5,5-difluoro-3-methyl-2-(((5-(trifluoromethyl)pyrimidin-2-yl)amino)methyl)piperidin-1-yl)methanone], the IC50 on OX2 was greater than 5000 nM; at OX1 it was 7 nM.
For `Cc1cnc(-c2cn(C)nc2C(=O)N2CC(F)(F)C[C@@H](C)[C@H]2CNc2ncc(C(F)(F)F)cn2)nc1` [Compound 219, ((2S,3R)-5,5-difluoro-3-methyl-2-(((5-(trifluoromethyl)pyrimidin-2-yl)amino)methyl)piperidin-1-yl)(1-methyl-4-(5-methylpyrimidin-2-yl)-1H-pyrazol-3-yl)methanone], in that order: greater than 5000 nM and 120 nM.
Turning to `C[C@@H]1CC(F)(F)CN(C(=O)c2nn(C)cc2-c2ccccn2)[C@@H]1COc1ccc(C(F)(F)F)cn1` [Compound 220, ((2S,3R)-5,5-difluoro-3-methyl-2-(((5-(trifluoromethyl)pyridin-2-yl)oxy)methyl)piperidin-1-yl)(1-methyl-4-(pyridin-2-yl)-1H-pyrazol-3-yl)methanone], the IC50 is greater than 5000 nM at OX2 and 8 nM on OX1.
`C[C@@H]1CC(F)(F)CN(C(=O)c2nn(C)cc2-c2ccc(Cl)cn2)[C@@H]1CNc1ncc(C(F)(F)F)cn1` [Compound 221, (4-(5-chloropyridin-2-yl)-1-methyl-1H-pyrazol-3-yl)((2S,3R)-5,5-difluoro-3-methyl-2-(((5-(trifluoromethyl)pyrimidin-2-yl)amino)methyl)piperidin-1-yl)methanone]: the figures for the IC50 on OX2 and at OX1 were greater than 5000 nM and 2 nM, respectively.
In the case of `C[C@@H]1CC(F)(F)CN(C(=O)c2nn(C)cc2-c2ncccn2)[C@@H]1COc1ncc(C(F)(F)F)cn1` [Compound 222, ((2S,3R)-5,5-difluoro-3-methyl-2-(((5-(trifluoromethyl)pyrimidin-2-yl)oxy)methyl)piperidin-1-yl)(1-methyl-4-(pyrimidin-2-yl)-1H-pyrazol-3-yl)methanone], the IC50 is greater than 5000 nM on OX2 and 26 nM on OX1.
Regarding `C[C@@H]1CC(F)(F)CN(C(=O)c2nn(C)cc2-c2ncccn2)[C@@H]1COc1cnc(C(F)(F)F)cn1` [Compound 223, ((2S,3R)-5,5-difluoro-3-methyl-2-(((5-(trifluoromethyl)pyrazin-2-yl)oxy)methyl)piperidin-1-yl)(1-methyl-4-(pyrimidin-2-yl)-1H-pyrazol-3-yl)methanone], the IC50 on OX2 was greater than 5000 nM; on OX1, 52 nM.
With `C[C@@H]1CC(F)(F)CN(C(=O)c2nn(C)cc2-c2cnccn2)[C@@H]1CNc1ncc(C(F)(F)F)cn1` [Compound 224, ((2S,3R)-5,5-difluoro-3-methyl-2-(((5-(trifluoromethyl)pyrimidin-2-yl)amino)methyl)piperidin-1-yl)(1-methyl-4-(pyrazin-2-yl)-1H-pyrazol-3-yl)methanone], the IC50 is greater than 5000 nM at OX2 and 62 nM at OX1.
In the case of `Cc1ccnc(-c2cn(C)nc2C(=O)N2CC(F)(F)C[C@@H](C)[C@H]2CNc2ncc(C(F)(F)F)cn2)n1` [Compound 225, ((2S,3R)-5,5-difluoro-3-methyl-2-(((5-(trifluoromethyl)pyrimidin-2-yl)amino)methyl)piperidin-1-yl)(1-methyl-4-(4-methylpyrimidin-2-yl)-1H-pyrazol-3-yl)methanone], the figures for the IC50 on OX2 and on OX1 were greater than 5000 nM and 17 nM, respectively.
Consider `C[C@@H]1CC(F)(F)CN(C(=O)c2nn(C)cc2-c2ncc(C(F)(F)F)cn2)[C@@H]1CNc1ncc(C(F)(F)F)cn1` [Compound 226, ((2S,3R)-5,5-difluoro-3-methyl-2-(((5-(trifluoromethyl)pyrimidin-2-yl)amino)methyl)piperidin-1-yl)(1-methyl-4-(5-(trifluoromethyl)pyrimidin-2-yl)-1H-pyrazol-3-yl)methanone], for which the 50% inhibitory concentration (IC50) on OX2 was greater than 5000 nM; on OX1, 350 nM.
Turning to `C[C@@H]1CC(F)(F)CN(C(=O)c2nn(C)cc2-c2cc(Cl)ccn2)[C@@H]1CNc1ncc(C(F)(F)F)cn1` [Compound 227, (4-(4-chloropyridin-2-yl)-1-methyl-1H-pyrazol-3-yl)((2S,3R)-5,5-difluoro-3-methyl-2-(((5-(trifluoromethyl)pyrimidin-2-yl)amino)methyl)piperidin-1-yl)methanone], the IC50 on OX2 was greater than 5000 nM; on OX1 it was 14 nM.
The corresponding values for `C[C@@H]1CC(F)(F)CN(C(=O)c2nn(C)cc2-c2ncccn2)[C@@H]1CNc1ncc(C(F)(F)F)cc1F` [Compound 228, ((2S,3R)-5,5-difluoro-2-(((3-fluoro-5-(trifluoromethyl)pyridin-2-yl)amino)methyl)-3-methylpiperidin-1-yl)(1-methyl-4-(pyrimidin-2-yl)-1H-pyrazol-3-yl)methanone] are greater than 5000 nM and 14 nM.
For the molecule `C[C@@H]1CC(F)(F)CN(C(=O)c2nn(C)cc2-c2cccc(C(F)(F)F)n2)[C@@H]1CNc1ncc(C(F)(F)F)cn1` [Compound 229, ((2S,3R)-5,5-difluoro-3-methyl-2-(((5-(trifluoromethyl)pyrimidin-2-yl)amino)methyl)piperidin-1-yl)(1-methyl-4-(6-(trifluoromethyl)pyridin-2-yl)-1H-pyrazol-3-yl)methanone], the values for the IC50 at OX2 and on OX1 were greater than 5000 nM and 7 nM, respectively.
On to `C[C@@H]1CC(F)(F)CN(C(=O)c2nn(C)cc2-c2cncnc2)[C@@H]1CNc1ncc(C(F)(F)F)cn1` [Compound 230, ((2S,3R)-5,5-difluoro-3-methyl-2-(((5-(trifluoromethyl)pyrimidin-2-yl)amino)methyl)piperidin-1-yl)(1-methyl-4-(pyrimidin-5-yl)-1H-pyrazol-3-yl)methanone], for which the IC50 was greater than 5000 nM on OX2 and 74 nM on OX1.
Consider `Cc1ccc(-c2ccc(C)nc2C(=O)N2CC(F)(F)C[C@@H](C)[C@H]2CNc2ncc(C(F)(F)F)cn2)nc1` [Compound 231, ((2S,3R)-5,5-difluoro-3-methyl-2-(((5-(trifluoromethyl)pyrimidin-2-yl)amino)methyl)piperidin-1-yl)(5,6′-dimethyl-[2,3′-bipyridin]-2′-yl)methanone], for which the IC50 at OX2 was greater than 5000 nM; on OX1, 14 nM.
The corresponding values for `CCn1cc(-c2ncccn2)c(C(=O)N2CC(F)(F)C[C@@H](C)[C@H]2CNc2ncc(C(F)(F)F)cn2)n1` [Compound 232, ((2S,3R)-5,5-difluoro-3-methyl-2-(((5-(trifluoromethyl)pyrimidin-2-yl)amino)methyl)piperidin-1-yl)(1-ethyl-4-(pyrimidin-2-yl)-1H-pyrazol-3-yl)methanone] are greater than 5000 nM and 82 nM.
In the case of `Cc1c(-c2ncccn2)c(C(=O)N2CC(F)(F)C[C@@H](C)[C@H]2CNc2ncc(C(F)(F)F)cn2)nn1C` [Compound 233, ((2S,3R)-5,5-difluoro-3-methyl-2-(((5-(trifluoromethyl)pyrimidin-2-yl)amino)methyl)piperidin-1-yl)(1,5-dimethyl-4-(pyrimidin-2-yl)-1H-pyrazol-3-yl)methanone], the IC50 is greater than 5000 nM at OX2 and 1 nM on OX1.
Take `Cc1ccc(C#CC2CC2)c(C(=O)N2CC(F)(F)C[C@@H](C)[C@H]2CNc2ncc(C(F)(F)F)cn2)n1` [Compound 234, (3-(cyclopropylethynyl)-6-methylpyridin-2-yl)((2S,3R)-5,5-difluoro-3-methyl-2-(((5-(trifluoromethyl)pyrimidin-2-yl)amino)methyl)piperidin-1-yl)methanone]: the IC50 at OX2 was greater than 5000 nM; on OX1, 29 nM.
For `CC#Cc1ccc(C)nc1C(=O)N1CC(F)(F)C[C@@H](C)[C@H]1CNc1ncc(C(F)(F)F)cn1` [Compound 235, ((2S,3R)-5,5-difluoro-3-methyl-2-(((5-(trifluoromethyl)pyrimidin-2-yl)amino)methyl)piperidin-1-yl)(6-methyl-3-(prop-1-yn-1-yl)pyridin-2-yl)methanone], the IC50 at OX2 was greater than 5000 nM; on OX1, 250 nM.
As to `CC(C)n1cc(-c2ncccn2)c(C(=O)N2CC(F)(F)C[C@@H](C)[C@H]2CNc2ncc(C(F)(F)F)cn2)n1` [Compound 237, ((2S,3R)-5,5-difluoro-3-methyl-2-(((5-(trifluoromethyl)pyrimidin-2-yl)amino)methyl)piperidin-1-yl)(1-isopropyl-4-(pyrimidin-2-yl)-1H-pyrazol-3-yl)methanone], the IC50 was greater than 5000 nM on OX2 and 1700 nM on OX1.
